The inhibition is how much of the control response was suppressed. Broadly, the CC50 is the concentration giving 50% cytotoxicity. In general, IC50 refers to the concentration that gives 50% inhibition.

Data on 14 compounds can be found in ChEMBL document CHEMBL5579842, “Modulation of endogenous opioid signaling by inhibitors of puromycin-sensitive aminopeptidase” (Eur J Med Chem, 2024).

Data set [1] deals with T1, Aminopeptidase N (Homo sapiens, UniProt P15144). The data set can be described thus: Inhibition of Aminopeptidase N (unknown origin) using Ala-AMC as substrate at 10 uM incubated for 30 mins by SpectraMax microplate reader analysis relative to control.
T1 sequence (P15144 whole entry): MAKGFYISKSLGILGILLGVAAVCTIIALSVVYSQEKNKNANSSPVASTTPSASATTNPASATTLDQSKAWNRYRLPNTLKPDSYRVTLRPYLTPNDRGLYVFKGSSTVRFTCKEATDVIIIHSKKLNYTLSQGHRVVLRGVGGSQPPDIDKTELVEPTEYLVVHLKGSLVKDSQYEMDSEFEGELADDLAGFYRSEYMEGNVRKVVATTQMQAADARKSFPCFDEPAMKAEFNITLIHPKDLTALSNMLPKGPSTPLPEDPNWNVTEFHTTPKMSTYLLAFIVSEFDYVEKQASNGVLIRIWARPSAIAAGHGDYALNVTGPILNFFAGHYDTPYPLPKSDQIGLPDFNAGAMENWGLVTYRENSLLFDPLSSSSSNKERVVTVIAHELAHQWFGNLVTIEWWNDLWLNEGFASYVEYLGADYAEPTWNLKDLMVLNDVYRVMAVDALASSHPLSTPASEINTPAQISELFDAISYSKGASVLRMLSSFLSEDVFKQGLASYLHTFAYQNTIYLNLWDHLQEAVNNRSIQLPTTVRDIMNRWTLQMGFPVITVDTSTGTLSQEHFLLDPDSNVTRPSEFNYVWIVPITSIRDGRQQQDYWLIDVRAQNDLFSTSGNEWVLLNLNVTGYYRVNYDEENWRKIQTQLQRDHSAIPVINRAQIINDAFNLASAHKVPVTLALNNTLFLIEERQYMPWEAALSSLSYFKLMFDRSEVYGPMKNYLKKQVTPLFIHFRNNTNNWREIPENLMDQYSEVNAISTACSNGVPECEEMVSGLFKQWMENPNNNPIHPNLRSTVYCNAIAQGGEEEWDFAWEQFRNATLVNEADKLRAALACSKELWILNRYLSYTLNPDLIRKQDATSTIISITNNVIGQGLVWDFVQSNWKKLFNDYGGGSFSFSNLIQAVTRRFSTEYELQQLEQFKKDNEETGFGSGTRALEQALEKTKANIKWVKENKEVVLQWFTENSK
In another data set the test system is Vero. The data set can be described thus: Inhibition of protein synthesis in African green monkey Vero cells at 25 uM relative to control. It counts as functional. Conditions: Chlorocebus sabaeus.
The nature of data set [2]: Cytotoxicity against African green monkey Vero cells by MTT assay. It counts as toxicity, cell-based. Conditions: chlorocebus sabaeus.
The target in data set [3] is T1, Aminopeptidase N. The data set can be described thus: Inhibition of Aminopeptidase N (unknown origin) using Ala-AMC as substrate incubated for 30 mins by SpectraMax microplate reader analysis.
The target of data set [4] is Puromycin-sensitive aminopeptidase (Homo sapiens, UniProt P55786). The data set can be described thus: Inhibition of human N-terminal His-tagged Puromycin-sensitive aminopeptidase extracted from Escherichia coli BL21 STAR (DE3) using alanine-4-methoxy-2-naphthylamide as substrate incubated for 30 mins by SpectraMax microplate reader analysis.
Sequence of Puromycin-sensitive aminopeptidase (P55786 whole entry): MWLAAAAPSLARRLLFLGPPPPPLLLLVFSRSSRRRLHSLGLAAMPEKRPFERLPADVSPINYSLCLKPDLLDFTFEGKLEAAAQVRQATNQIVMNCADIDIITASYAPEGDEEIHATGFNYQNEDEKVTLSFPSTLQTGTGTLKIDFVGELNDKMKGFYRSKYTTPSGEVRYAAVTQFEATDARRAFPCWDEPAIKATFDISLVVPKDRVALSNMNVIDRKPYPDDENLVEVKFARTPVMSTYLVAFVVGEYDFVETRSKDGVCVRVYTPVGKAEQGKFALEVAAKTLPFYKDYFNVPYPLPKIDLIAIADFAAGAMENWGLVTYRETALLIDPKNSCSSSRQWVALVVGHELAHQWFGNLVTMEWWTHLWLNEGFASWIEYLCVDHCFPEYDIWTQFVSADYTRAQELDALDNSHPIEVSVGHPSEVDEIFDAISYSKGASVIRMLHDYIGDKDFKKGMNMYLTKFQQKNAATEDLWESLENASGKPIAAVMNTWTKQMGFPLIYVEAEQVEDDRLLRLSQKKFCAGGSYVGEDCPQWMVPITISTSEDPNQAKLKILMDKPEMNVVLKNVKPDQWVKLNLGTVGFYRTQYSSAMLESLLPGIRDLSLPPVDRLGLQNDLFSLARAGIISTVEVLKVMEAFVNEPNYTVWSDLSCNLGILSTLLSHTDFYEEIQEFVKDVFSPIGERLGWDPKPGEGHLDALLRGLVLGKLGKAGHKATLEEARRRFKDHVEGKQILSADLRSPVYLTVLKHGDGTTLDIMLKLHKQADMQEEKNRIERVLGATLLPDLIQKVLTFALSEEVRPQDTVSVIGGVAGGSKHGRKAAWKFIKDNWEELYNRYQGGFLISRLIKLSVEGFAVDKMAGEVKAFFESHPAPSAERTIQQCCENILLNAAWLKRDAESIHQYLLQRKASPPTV
Data set [5] concerns Mus musculus. The data set can be described thus: Antinociceptive activity in CF-1 mouse assessed as analgesic effect at 50 to 100 ug,icv administration measured after 45 mins by tail-flick test. It counts as functional, organism-based. Particulars: dose 50-100 µg.
Data set [6] relates to Mus musculus. Kind of data set: Antinociceptive activity in CF-1 mouse assessed as increase in maximal possible effect at 50 to 100 ug,icv administration measured after 60 mins by tail-flick test. The format is functional, organism-based. Particulars: dose 50-100 µg.
The subject of data set [7] is Mus musculus. Kind of data set: Antinociceptive activity in CF-1 mouse assessed as analgesic effect at ip administration measured after 60 mins by tail-flick test. It counts as functional, organism-based. Background: Hot-plate and tail-flick tests time the reaction to a heat stimulus.
The subject of data set [8] is Mus musculus. Kind of data set: Antinociceptive activity in CF-1 mouse assessed as analgesic effect at 50 to 100 ug,icv administration measured after 60 mins by tail-flick test. The format is functional, organism-based. Particulars: dose 50-100 µg.
Data set [9] has as its system Mus musculus. Kind of data set: Antinociceptive activity in CF-1 mouse assessed as increase in maximal possible effect at 50 to 100 ug,icv administration measured after 15 mins by tail-flick test. The format is functional, organism-based. Particulars: dose 50-100 µg.
Data set [10] deals with Mus musculus. Kind of data set: Antinociceptive activity in CF-1 mouse assessed as analgesic effect at 50 to 100 ug,icv administration measured after 15 mins by hot plate assay. It counts as functional, organism-based. Conditions: dose 50-100 µg.
The subject of data set [11] is Mus musculus. The data set can be described thus: Antinociceptive activity in CF-1 mouse assessed as analgesic effect at ip administration measured after 15 mins by hot plate assay. It counts as functional, organism-based.
In data set [12] the test system is Mus musculus. Kind of data set: Antinociceptive activity in CF-1 mouse assessed as increase in maximal possible effect at 50 to 100 ug,icv administration in presence of Met-enkephalin measured after 65 mins by tail-flick test. The format is functional, organism-based. Conditions: dose 50-100 µg.
The test system of data set [13] is Mus musculus. Kind of data set: Antinociceptive activity in CF-1 mouse assessed as increase in maximal possible effect at 50 to 100 ug,icv administration in presence of Met-enkephalin measured after 15 mins by tail-flick test. Particulars: dose 50-100 µg. It counts as functional, organism-based.
Data set [14] relates to Mus musculus. The data set can be described thus: Antinociceptive activity in CF-1 mouse assessed as increase in maximal possible effect at 50 to 100 ug,icv administration in presence of Met-enkephalin measured after 65 mins by hot plate assay. It counts as functional, organism-based. Particulars: dose 50-100 µg.
For data set [15], the system named is Mus musculus. The data set can be described thus: Antinociceptive activity in CF-1 mouse assessed as increase in maximal possible effect at 50 to 100 ug,icv administration in presence of Met-enkephalin measured after 15 mins by hot plate assay. It counts as functional, organism-based. Conditions: dose 50-100 µg.
Data set [16] has as its system Mus musculus. Kind of data set: Antinociceptive activity in CF-1 mouse assessed as increase in maximal possible effect at 50 to 100 ug,icv administration in presence of naloxone measured after 65 mins by tail-flick test. The format is functional, organism-based. Particulars: dose 50-100 µg.
The test system of data set [17] is Mus musculus. Kind of data set: Antinociceptive activity in CF-1 mouse assessed as increase in maximal possible effect at 50 to 100 ug,icv administration in presence of naloxone measured after 15 mins by tail-flick test. It counts as functional, organism-based. Particulars: dose 50-100 µg.
Data set [18] concerns Mus musculus. The data set can be described thus: Antinociceptive activity in CF-1 mouse assessed as increase in maximal possible effect at 50 to 100 ug,icv administration in presence of naloxone measured after 65 mins by hot plate assay. The format is functional, organism-based. Conditions: dose 50-100 µg.
Data set [19] concerns Mus musculus. Kind of data set: Antinociceptive activity in CF-1 mouse assessed as increase in maximal possible effect at 50 to 100 ug,icv administration in presence of naloxone measured after 15 mins by hot plate assay. Particulars: dose 50-100 µg. It counts as functional, organism-based.
Data set [20] deals with Mus musculus. Kind of data set: Antinociceptive activity in CF-1 mouse assessed as increase in Met-enkephalin level in brain at 50 to 100 ug,icv administration in presence of KCL measured after 65 mins by LC-MS/MS analysis. The format is functional, organism-based. Particulars: dose 50-100 µg.
Data set [21] deals with Mus musculus. Kind of data set: Antinociceptive activity in CF-1 mouse assessed as increase in Leu-enkephalin level in brain at 50 to 100 ug,icv administration in presence of KCL measured after 65 mins by LC-MS/MS analysis. The format is functional, organism-based. Particulars: dose 50-100 µg.
Data set [22] relates to Mus musculus. Kind of data set: Antinociceptive activity in CF-1 mouse assessed as increase in MERF level in brain at 50 to 100 ug,icv administration in presence of KCL measured after 65 mins by LC-MS/MS analysis. Particulars: dose 50-100 µg. The format is functional, organism-based.
Data set [23] can be described thus: Stability in mouse plasma assessed as compound remaining at 1 uM measured after 24 hr by LC-MS/MS analysis relative to control. It counts as ADME, cell-free.

The source made the active and inactive calls. The calls are words filed in the database; no cut-off is given here. Where only a bound is given, the exact number is not on record here.

On Aminopeptidase N [1], `CN(C)c1ncnc2c1ncn2[C@@H]1O[C@H](CCl)[C@@H](NC(=O)[C@H](N)CSC(c2ccccc2)c2ccccc2)[C@H]1O` had an inhibition of 38.9%. At 25 µM the inhibition in the data set on Vero was 0%.
In the case of `CN(C)c1ncnc2c1ncn2[C@@H]1O[C@H](CO)[C@@H](NC(=O)[C@H](N)CSC(c2ccccc2)c2ccccc2)[C@H]1O`, 25 µM produced 0% inhibition in the data set with Vero. The same compound showed a CC50 in data set [2] of 46 µM.
With `CN(C)c1ncnc2c1ncn2[C@@H]1O[C@H](CCl)[C@@H](NC(=O)[C@H](CSC(c2ccccc2)c2ccccc2)NC(=O)OC(C)(C)C)[C@H]1O`, the inhibition at Aminopeptidase N [1] is 4.6%. Also, in the data set on Vero, the inhibition at 25 µM is 3%. In data set [2], the CC50 was above 100 µM.
Consider `COc1ccc(C[C@H](N)C(=O)N[C@H]2[C@@H](O)[C@H](n3cnc4c(N(C)C)ncnc43)O[C@@H]2CCl)cc1`, for which the IC50 on Aminopeptidase N [3] was above 100 µM. This compound returned an inhibition at 25 µM in the data set with Vero of 26.1%.
In turn, `COc1ccc(C[C@H](N)C(=O)N[C@H]2[C@@H](O)[C@H](n3cnc4c(N(C)C)ncnc43)O[C@@H]2CO)cc1` [PUROMYCIN] gave an inhibition at 25 µM in the data set on Vero of 99%. The same compound registered a CC50 in data set [2] of 2.76 µM.
In the case of `CN(C)c1ncnc2c1ncn2[C@@H]1O[C@H](CCl)[C@@H](NC(=O)[C@@H](N)CSC23CC4CC(CC(C4)C2)C3)[C@H]1O`, the IC50 in [4] amounted to 0.005 µM; on Aminopeptidase N [3], 0.084 µM. In addition, the inhibition against Aminopeptidase N [1] stood at 99.1%. In addition, in the data set on Vero, at 25 µM the inhibition was 10.4%.
For `O=C(O)CNC(=O)C(CS)Cc1ccccc1` (centres undefined) [THIORPHAN], the IC50 in data set [4] is 57.3 µM; against Aminopeptidase N [3] it was above 100 µM. The inhibition against Aminopeptidase N [1] amounted to 0%. In the data set with Vero, at 25 µM the inhibition was 70.3%. The compound further returned a CC50 in data set [2] above 100 µM.
As for `CN(C)c1ncnc2c1ncn2[C@@H]1O[C@H](CO)[C@@H](NC(=O)[C@@H](N)CSC(c2ccccc2)c2ccccc2)[C@H]1O`, the IC50 in data set [4] was 0.007 µM. In the data set with Vero, the inhibition at 25 µM came to 0%. Further, the half-maximal cytotoxic concentration (CC50) in data set [2] is above 100 µM.
For `CN(C)c1ncnc2c1ncn2[C@@H]1O[C@H](CO)[C@@H](NC(=O)[C@@H](N)CSC23CC4CC(CC(C4)C2)C3)[C@H]1O`, the inhibition at Aminopeptidase N [1] stood at 99.1%. Moreover, in the data set with Vero, the inhibition at 25 µM was 24%. Besides, the CC50 in [2] was determined as 17.6 µM.
On the same counts, the results for `CN(C)c1ncnc2c1ncn2[C@@H]1O[C@H](CCl)[C@@H](NC(=O)[C@@H](CSC(c2ccccc2)c2ccccc2)NC(=O)OC(C)(C)C)[C@H]1O` are 0%, 0% and 67.4 µM.
In the data set on Vero, `CC(C)C[C@@H](C(=O)N[C@H](C(=O)OC1CCCC1)c1ccccc1)[C@H](O)C(=O)NO` [TOSEDOSTAT] gave an inhibition at 25 µM of 34.5%. Besides, it took 12.7 µM to reach half-maximal cytotoxicity in data set [2] (CC50).
On Aminopeptidase N [1], `CN(C)c1ncnc2c1ncn2[C@@H]1O[C@H](CCl)[C@@H](NC(=O)[C@H](CSC23CC4CC(CC(C4)C2)C3)NC(=O)OC(C)(C)C)[C@H]1O` displayed an inhibition of 0%. This compound also returned an inhibition at 25 µM in the data set on Vero of 22.1%.
As for `CN(C)c1ncnc2c1ncn2[C@@H]1O[C@H](CCl)[C@@H](NC(=O)[C@@H](N)CSC(c2ccccc2)c2ccccc2)[C@H]1O`, the results for the half-inhibitory concentration (IC50) (in data set [4]; against Aminopeptidase N [3]) were 0.007 µM and 2.6 µM, respectively. In addition, on Aminopeptidase N [1], the inhibition was 55.8%. This compound gave an inhibition at 25 µM in the data set with Vero of 0%. Besides, in data set [2], the CC50 was above 100 µM. The result in the data set on Mus musculus [5], in the data set on Mus musculus [6], with Mus musculus [8], in the data set on Mus musculus [9], in the data set with Mus musculus [10] and in the data set with Mus musculus [12] was Active. Also, the result in the data set with Mus musculus [13], in the data set on Mus musculus [14], in the data set with Mus musculus [15], in the data set with Mus musculus [21] and with Mus musculus [22] was Active. The outcome with Mus musculus [7], with Mus musculus [11], in the data set on Mus musculus [16], in the data set on Mus musculus [17], with Mus musculus [18] and with Mus musculus [19] was inactive. For the same compound, the outcome in the data set on Mus musculus [20] was inactive. In addition, the Stability in data set [23] is recorded as 116.7%.
As to `CC(C)C[C@H](NC(=O)[C@@H](O)[C@H](N)Cc1ccccc1)C(=O)O` [UBENIMEX], the inhibition at 25 µM in the data set on Vero amounted to 28%. Also, in data set [2], the CC50 is 25 µM.
